Here are results for 3 compounds from patent US7728033B2, “Mycophenolate mofetil in diabetic nephropathy” (Clinigene International Private Limited, priority 2003, dated 2010).

Data set [1] relates to patients with type 1 diabetes mellitus and diabetic nephropathy. Conditions: cited from earlier work.
Data set [2] concerns patients with diabetic nephropathy. Nature of the data set: 24-hour urine protein (proteinuria), open-labeled randomized study. The format is in vivo, human. The arrangement: Mean 24 h Urine protein, 1 month after treatment at V3 / Result Difference 24 h Urine protein, V3 (1 month) vs baseline V2 / Mean 24 h Urine protein, 3 month after treatment at V4: unit not given here. The method, then: In this study, a total of 30 patients were planned of which 18 were randomized and subjected to enter into one of the studies in which the patient groups each received MMF alone, lisinopril alone, or a combination of both MMF and lisinopril.
The primary end-point for this study was the proteinuria value obtained from the patients via 24-hour urine protein which was measured using the Calorimetric method Pyrogallol Red/SDS liquid stable single reagent.
(§1) Evaluation of the effects of MMF or ACE inhibitors alone or in combination on the status of proteinuria in patients with diabetic nephropathy was an open-labeled, randomized study. This study consisted of three arms as shown below. • 1. treatment with MMF alone • 2. treatment with combination of MMF and lisinopril • 3. treatment with lisinopril alone In addition, there were three phases of the study as shown below.
Phase 2: Treatment Phase (6 months): Every patient who qualified the screening phase was assigned one of the treatment arms. During this phase, patients were monitored closely and efficacy and safety parameters are assessed every month.
(§2) Study Products and Dosage: • 1. MMF: The dose of MMF given during the study was 500 mg per oral twice a day throughout the study. • 2. Lisinopril: The starting dose of lisinopril given in the study was 5 mg per oral twice a day. In case of hypertensive patients, the dose could be titrated upwards based on investigator's discretion, which in turn was based on the patient's “safety end point”. • 3. MMF+Lisinopril: In the patients who received both the drugs, the dose of MMF was 500 mg per oral twice a day and lisinopril was 5 mg per oral twice a day. In the case of hypertensive patients, the dose of lisinopril could be titrated upwards based on investigator's discretion, which in turn was based on the patient's “safety end point”.

Data set [3] has the same test system. Put plainly: Estimated GFR (Cockcroft-Gault formula), open-labeled randomized study. The format is in vivo, human. The method, then:
A secondary end-point for this study was the GFR value obtained for each patient. This Secondary Endpoint included Estimated GFR, which was calculated using the following formulae: […]
Once all data was collected, Glomerular Filtration Rate GFR) was determined by the Cockcroft-Gault formula.
as §1, §2

Data set [4] deals with patients with IgA nephropathy. Conditions: MMF 1-1.5g per day vs Prednisone 30-40 mg per day; followed to 72 weeks; preliminary report; cited from earlier work.
For data set [5], the system named is patients with lupus nephritis. As to conditions: systemic lupus erythomatosis; 0.5 to 1.5 g/d; cited from earlier work.
The next data set relates to Diabetic rats. As to conditions: 8 months; cited from earlier work.
[6] abbreviates: Benefited patients, MMF alone 500 mg per oral twice a day.
[7] abbreviates: Benefited patients, MMF alone 500 mg twice daily.
Where [8] appears, read: Not benefited patients, MMF alone 500 mg per oral twice a day.
[9] abbreviates: Not benefited patients, MMF alone 500 mg twice daily.
[10] abbreviates: Benefited patients, lisinopril alone 5 mg twice daily.
The mark [11] stands for this setting: Not benefited patients, lisinopril alone 5 mg twice daily.

In the case of `C[C@H](CS)C(=O)N1CCC[C@H]1C(=O)O` [Captopril], the “progression of renal disease” value in data set [1] is recorded as “prevents or delays the progression of renal disease”.
Take `COc1c(C)c2c(c(O)c1C/C=C(\C)CCC(=O)OCCN1CCOCC1)C(=O)OC2` [MMF, mycophenolate mofetil]: in data set [2] (setting [6]), the “Mean 24 h Urine protein, 1 month after treatment at V3” value (“Mean 24 h Urine protein, 1 month” below) came out at 112.73 and the “Result Difference 24 h Urine protein, V3 (1 month) vs baseline V2” value (“Result Difference 24 h Urine protein, V3” for short) is on record as −203.93. For the same compound, in data set [2] (setting [7]), the “Mean 24 h Urine protein, 3 month after treatment at V4” value (“Mean 24 h Urine protein, 3 month” for short) stood at 260.8 and the “Result Difference 24 h Urine protein, V4 (3 month) vs baseline V2” value (from here on “Result Difference 24 h Urine protein, V4”) was −136.6. The “patients with reduced proteinuria” value in data set [2] (MMF alone 500 mg twice daily, at V4 at the end of 3 months) was 67%. Moreover, in data set [2] (MMF alone, after 1 month of treatment (V3 vs V2)), the “patients with reduced proteinuria” value is given as 67%. For the same compound, in data set [2] (setting [8]), the “Mean 24 h Urine protein, 1 month” value stood at 696.3 and the “Result Difference 24 h Urine protein, V3” value came out at 361.7. For the same compound, the “Mean 24 h Urine protein, 3 month” value in data set [2] (setting [9]) was 305.5. Moreover, in data set [3] (setting [6]), the “Mean GFR, 1 month after treatment at V3” value was 89.3 mL/min and the “Result Difference GFR, V3 (1 month) vs baseline V2” value (shortened to “Result Difference GFR, V3 (1 month)”) is 0.27 mL/min. Further, in data set [3] (setting [7]), the “Mean GFR, 3 month after treatment at V4” value is 81.85 mL/min and the “Result Difference GFR, V4 (3 month) vs baseline V2” value (shortened to “Result Difference GFR, V4 (3 month)”) was -1.35 mL/min. In data set [3] (setting [8]), the “Mean GFR, 1 month after treatment at V3” value is 75.26 mL/min and the “Result Difference GFR, V3 (1 month)” value was 4.40 mL/min. In data set [3] (setting [9]), the “Mean GFR, 3 month after treatment at V4” value was 49.9 mL/min. Further, in data set [4], the “decreasing proteinuria, protecting renal function and decreasing blood lipid levels” value was “superior to Prednisone”. Moreover, the tolerability entry in data set [5] is “well tolerated”. Moreover, in the data set on Diabetic rats, the “albuminuria, glomerular macrophage infiltration and glomerulosclerosis” value is reported as “did prevent”; the “effect on blood pressure, glomerular dynamics or blood glucose levels” value is “no effect”.
Consider `NCCCC[C@H](N[C@@H](CCc1ccccc1)C(=O)O)C(=O)N1CCC[C@H]1C(=O)O` [lisinopril], for which, in data set [2] (setting [10]), the “Mean 24 h Urine protein, 1 month” value was determined as 236.66; the “Mean 24 h Urine protein, 3 month” value amounted to 161.15; the “Mean 24 h Urine protein, 6 month after treatment at V5” value is 248.4; the “Result Difference 24 h Urine protein, V3” value is given as −133.6. In data set [2] (setting [10]), the “Result Difference 24 h Urine protein, V4” value was −268.75 and the “Result Difference 24 h Urine protein, V5 (6 month) vs baseline V2” value is recorded as −239.6. Further, in data set [2] (setting [11]), the “Mean 24 h Urine protein, 1 month” value was 211.25; the “Mean 24 h Urine protein, 3 month” value worked out at 289.2; the “Mean 24 h Urine protein, 6 month after treatment at V5” value was 626; the “Result Difference 24 h Urine protein, V3” value was 53.73. In addition, in data set [2] (setting [11]), the “Result Difference 24 h Urine protein, V4” value is 101.47 and the “Result Difference 24 h Urine protein, V5 (6 month) vs baseline V2” value turned out to be 254.2. For the same compound, in data set [2] (lisinopril alone 5 mg twice daily, at the end of 1 month), the “patients with reduced proteinuria” value is recorded as 42%. The “patients with reduced proteinuria” value in data set [2] (lisinopril alone 5 mg twice daily, at the end of 3 month) worked out at 40%. For the same compound, the “patients with reduced proteinuria” value in data set [2] (lisinopril alone 5 mg twice daily, at the end of 6 month) amounted to 50%. Also, in data set [3] (setting [10]), the “Mean GFR, 1 month after treatment at V3” value is 79.16 mL/min; the “Mean GFR, 3 month after treatment at V4” value is 89.55 mL/min; the “Mean GFR, 6 month after treatment at V5” value is 105.9 mL/min; the “Result Difference GFR, V3 (1 month)” value is -0.09 mL/min. Besides, in data set [3] (setting [10]), the “Result Difference GFR, V4 (3 month)” value is 7.95 mL/min and the “Result Difference GFR, V5 (6 month) vs baseline V2” value is 28.5 mL/min. Besides, in data set [3] (setting [11]), the “Mean GFR, 1 month after treatment at V3” value was 63.97 mL/min; the “Mean GFR, 3 month after treatment at V4” value was 68.76 mL/min; the “Mean GFR, 6 month after treatment at V5” value is 76.4 mL/min; the “Result Difference GFR, V3 (1 month)” value is 1.91 mL/min. Moreover, in data set [3] (setting [11]), the “Result Difference GFR, V4 (3 month)” value was 0.13 mL/min and the “Result Difference GFR, V5 (6 month) vs baseline V2” value was -9.4 mL/min.
